The source made the active and inactive calls.
What was measured:
[1] = cytotoxicity toward NIH3T3 fibroblasts, dose response, counter-screen, cell-based, ATP luminescence, mouse fibroblasts (AID 2010); type: functional;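 further: cells exposed to compound for about 90 hours before reading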
[2] = inhibitors of intracellular T. cruzi replication, confirmation, NIH3T3 host cells, beta-gal luminescence (AID 2044); type: functional, cell-based;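 further: intracellular parasites grown in NIH/3T3 mouse fibroblasts as host cells; luminescent beta-galactosidase reporter signal from transgenic T. cruzi replicating inside host cells; inhibitors lower the luminescence signal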
[3] = biological target: Cytochrome P450 2C19 (Homo sapiens, UniProt P33261); test: Cytochrome panel assay with activity outcomes. Panel member name: p450-cyp2c19 Compounds with AC50 equal or less than 10 uM are considered active; type: functional
Sequence of Cytochrome P450 2C19 (P33261 whole entry): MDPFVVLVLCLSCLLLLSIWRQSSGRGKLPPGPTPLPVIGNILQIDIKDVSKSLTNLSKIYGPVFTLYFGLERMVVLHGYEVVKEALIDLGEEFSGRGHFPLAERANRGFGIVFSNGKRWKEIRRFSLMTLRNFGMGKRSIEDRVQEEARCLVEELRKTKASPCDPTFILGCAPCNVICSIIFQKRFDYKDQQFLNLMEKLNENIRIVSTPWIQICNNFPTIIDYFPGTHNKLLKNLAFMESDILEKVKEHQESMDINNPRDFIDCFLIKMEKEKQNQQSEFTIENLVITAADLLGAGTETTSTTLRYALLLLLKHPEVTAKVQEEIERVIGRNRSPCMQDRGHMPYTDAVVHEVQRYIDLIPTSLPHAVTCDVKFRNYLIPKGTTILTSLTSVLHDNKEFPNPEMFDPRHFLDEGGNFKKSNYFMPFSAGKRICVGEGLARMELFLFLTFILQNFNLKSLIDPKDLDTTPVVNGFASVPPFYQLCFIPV

[4] = biological target: Cytochrome P450 2C9 (Homo sapiens, UniProt P11712)
Sequence of Cytochrome P450 2C9 (P11712 whole entry): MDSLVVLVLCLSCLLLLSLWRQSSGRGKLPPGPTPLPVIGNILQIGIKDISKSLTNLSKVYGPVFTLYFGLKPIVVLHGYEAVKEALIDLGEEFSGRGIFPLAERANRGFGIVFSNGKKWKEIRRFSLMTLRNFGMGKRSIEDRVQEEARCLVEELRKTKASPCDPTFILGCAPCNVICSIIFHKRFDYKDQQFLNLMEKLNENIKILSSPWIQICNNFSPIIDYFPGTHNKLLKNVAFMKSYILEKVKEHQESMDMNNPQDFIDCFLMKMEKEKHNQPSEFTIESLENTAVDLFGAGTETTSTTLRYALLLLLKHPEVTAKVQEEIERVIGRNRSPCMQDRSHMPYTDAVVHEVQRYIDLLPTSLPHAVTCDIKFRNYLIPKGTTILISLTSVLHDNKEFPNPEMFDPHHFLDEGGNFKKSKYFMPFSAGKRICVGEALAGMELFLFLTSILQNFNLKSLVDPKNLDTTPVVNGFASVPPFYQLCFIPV

[5] = tested on: H4; test: Luminescence Cell-Based Dose Response HTS to Identify Activators of 5'UTR Stem-Loop Driven Prion Protein mRNA Translation in H4 Neuroglioblastoma Cells. [Related pubchem assays: 1829 (Project Summary), 1814 (Primary HTS)]; type: functional; conditions: Homo sapiens

SMILES	EC50 [1]	EC50 [2]	further results
Cc1ccc(S(=O)(=O)c2nnn3c2nc(NC2CCN(Cc4ccccc4)CC2)c2ccccc23)cc1C	> 30 µM (not active)	1.24 µM (active)	–
COc1ccc(Cc2nc3cc(S(=O)(=O)N4CCOCC4)ccc3[nH]2)cc1OC	–	–	AC50 ([3]; read-out: AC50): 25.1 µM (inconclusive)
CCCCC1CC(/C(C)=N/NC(N)=O)OC1=O (stereo not drawn)	–	–	AC50 [4]: 20 µM (inconclusive)
Cc1ccc2nc(N(CCN(C)C)C(=O)c3ccc4c(c3)OCCO4)sc2c1	> 60 µM (not active)	0.104 µM (active)	–
COc1ccc(/C=C/C(=O)N2c3ccccc3Sc3ccc(C(F)(F)F)cc32)cc1	> 60 µM (not active)	2.8 µM (active)	–
Cc1cccc(N/C=C(\[N+](=O)[O-])S(=O)(=O)c2ccccc2)c1C	> 60 µM (inconclusive)	> 60 µM (not active)	–
COc1ccc(C(CC(=O)Nc2cc(OC)cc(OC)c2)n2cccc2)cc1 (stereo not drawn)	> 60 µM (not active)	2.45 µM (active)	–
c1ccc(CNc2ncncc2-c2ccc3c(c2)OCO3)cc1	–	–	AC50 [4]: 0.316 µM (inconclusive)
N=C(NC(=O)c1ccccc1F)Nc1nc2ccccc2o1	–	–	AC50 ([3]; read-out: AC50): 22.4 µM (inconclusive)
O=C(N/N=C/c1c(Nc2cccc(C(F)(F)F)c2)nc2ccccn2c1=O)c1ccccc1	–	–	AC50 [4]: 12.6 µM (inconclusive)
CCn1nnnc1SCC(=O)c1ccc2c(c1)OCCO2	–	–	AC50 [4]: 17.8 µM (inconclusive)
COc1ccc2[nH]c3c(c2c1)CCN1C(=O)N([C@@H](C)C(=O)NC2CCN(Cc4ccccc4)CC2)C(=O)[C@]31C	> 60 µM (not active)	0.122 µM (active)	–
Cc1ccccc1-c1ccc2ncnc(N(C)C)c2c1	–	–	AC50 [4]: 0.398 µM (inconclusive)
COCCn1c(=O)c(-c2ccccc2)nc2cnc(OCc3ccccc3)nc21	–	–	AC50 ([3]; read-out: AC50): 20 µM (inconclusive)
COc1cccc(CNCCc2cccc(F)c2)c1OC	> 60 µM (not active)	0.828 µM (active)	–
CCOc1ccc(-n2c(SCc3nc(-c4ccc(C)cc4)no3)nnc2-c2ccncc2)cc1	6.76 µM (active)	1.31 µM (active)	–

SMILES	EC50 [1]	EC50 [2]	further results
Cc1ccsc1C(=O)C1CCCN(Cc2cnc(N3CCOCC3)s2)C1 (stereo not drawn)	> 60 µM (not active)	0.146 µM (active)	–
Cn1c(=O)c2c(nc(Cc3ccccc3)n2CC(=O)O)n(C)c1=O	–	–	AC50 [3]: inconclusive
CN[C@@H](c1ccncc1)[C@@H](NC)c1ccncc1	–	–	AC50 ([3]; read-out: AC50): 3.16 µM (inconclusive)
O=C(CSc1nc(C2CC2)nc2ccccc12)N1c2ccccc2Sc2ccccc21	> 60 µM (not active)	4.43 µM (active)	–
COc1ccccc1CN1CCN(Cc2nc(-c3cccs3)no2)CC1	> 60 µM (not active)	0.841 µM (active)	–
Cn1c(-c2nnn(-c3ccc(F)cc3)n2)cc2ccccc21	–	–	EC50 [5]: 36.6 µM (active)
O=C(O)/C(Cc1ccc([N+](=O)[O-])cc1)=N/O	–	–	AC50 ([3]; read-out: AC50): 5.01 µM (inconclusive)
Cc1ccc(-n2c(C)cc(C(=O)COC(=O)c3cccnc3O)c2C)cc1	–	–	EC50 [5]: > 120 µM (not active)
Cn1c(=O)c2c3c(sc2n2cnnc12)CCC3	–	–	AC50 [3]: inconclusive
c1ccc(Cn2c3ccccc3c3nnc(SCCN4CCCCC4)nc32)cc1	> 60 µM (not active)	0.489 µM (active)	–
COc1ccc(Cc2noc(CN3CCCN(Cc4ccc(F)cc4)CC3)n2)cc1OC	> 60 µM (not active)	0.248 µM (active)	–
Nc1c(C(=O)Nc2ccccc2)c2nc3ccccc3nc2n1-c1ccc(O)cc1	15.9 µM (active)	2.07 µM (active)	–
CCOc1ccc(C(=O)C2=C(O)C(=O)N(CCOCCO)C2c2ccccc2OC)cc1 (stereo not drawn)	–	–	AC50 ([3]; read-out: AC50): 25.1 µM (inconclusive)
Cc1cc(N2C(=O)C(O)=C(C(=O)c3cccs3)C2c2cccc(O)c2)no1 (stereo not drawn)	–	–	AC50 ([3]; read-out: AC50): 31.6 µM (inconclusive)
CC1(C)C([N+](=O)[O-])C(c2ccc(Cl)cc2)NC(c2ccc(Cl)cc2)C1[N+](=O)[O-] (stereo not drawn)	> 60 µM (inconclusive)	2 µM (active)	–
CCC1Oc2ccc(C)cc2N(CC(=O)N(Cc2cccnc2)Cc2cccc(F)c2)C1=O (stereo not drawn)	> 60 µM (not active)	0.145 µM (active)	–
